Assay results: article PMC10720709, “Design, synthesis, and evaluation of 4-(3-(3,5-dimethylisoxazol-4-yl)benzyl)phthalazin-1(2H)-one derivatives: potent BRD4 inhibitors with anti-breast cancer activity” (Frontiers in Pharmacology, 2023)

Key:
[1] = target: T1, recombinant BRD4 (BD1 + BD2) (Homo sapiens, UniProt O60885); test: BRD4 TR-FRET activity assay; assay type: binding; conditions: 1 μmol/L; read-out: BRD4 inhibition rate;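 note: signal rises with BET ligand binding to the bromodomains, so inhibitors lower it, 120 min incubation at room temperature, 1% DMSO, wells lacking ligand as negative control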
T1 construct: employing a recombinant BRD4 (BD1 + BD2) and its corresponding ligand
Protocol: The BRD4 activity assay utilized TR-FRET technology, employing a recombinant BRD4 (BD1 + BD2) and its corresponding ligand. The TR-FRET signal generated in the assay is proportional to the ligand’s binding to the bromodomains. All reactions contained a final DMSO concentration of 1%. All binding reactions were conducted at room temperature. Each 20 µL reaction mixture, in assay buffer, comprised bromodomains, the BET Ligand, and the specified inhibitor amount. For the negative control, 5 µL of assay buffer replaced the BET ligand. After a 120-min incubation with the ligand, the TR-FRET signal was captured using a Tecan Infinite M1000 plate reader. IC50 values were determined through nonlinear regression with a normalized dose-response fit in Prism GraphPad software.

Structure (SMILES) | inhibition at 1 µM [1] | melting point
Cc1noc(C)c1-c1cc(Cc2n[nH]c(=O)c3ccccc23)cc(C(=O)N2CCN(C(=O)C3CC3)CC2)c1 [DDT17] | 16% | 154 to 155 °C
Cc1noc(C)c1-c1cc(Cc2n[nH]c(=O)c3ccccc23)cc(C(=O)N2CCn3nc(C(F)(F)F)nc3C2)c1 [DDT18] | 37% | 161 to 162 °C
Cc1noc(C)c1-c1cc(Cc2n[nH]c(=O)c3ccccc23)cc(NC(=O)c2cccc(C(F)(F)F)c2)c1 [DDT27] | 60% | 231 to 232 °C
Cc1noc(C)c1-c1cc(Cc2n[nH]c(=O)c3ccccc23)cc(NC(=O)c2ccc(C(F)(F)F)cc2)c1 [DDT28] | 54% | –
Cc1noc(C)c1-c1cc(Cc2n[nH]c(=O)c3ccccc23)cc(NC(=O)c2cccc([N+](=O)[O-])c2)c1 [DDT29] | 65% | > 250 °C
Cc1noc(C)c1-c1cc(Cc2n[nH]c(=O)c3ccccc23)cc(NC(=O)c2ccc([N+](=O)[O-])cc2)c1 [DDT30] | 74% | –
Cc1noc(C)c1-c1cc(Cc2n[nH]c(=O)c3ccccc23)cc(NC(=O)c2cccc(N)c2)c1 [DDT31] | 71% | 236 to 237 °C
Cc1noc(C)c1-c1cc(Cc2n[nH]c(=O)c3ccccc23)cc(NCc2ccccc2)c1 [DDT33] | 3% | 230 to 231 °C
Cc1noc(C)c1-c1cc(Cc2n[nH]c(=O)c3ccccc23)cc(NCc2cccc(F)c2)c1 [DDT34] | 3% | –
Cc1noc(C)c1-c1cc(Cc2n[nH]c(=O)c3ccccc23)cc(NCc2ccc(F)cc2)c1 [DDT35] | 3% | –
Cc1noc(C)c1-c1cc(Cc2n[nH]c(=O)c3ccccc23)cc(NCc2cccc([N+](=O)[O-])c2)c1 [DDT36] | 3% | 229 to 230 °C
Cc1noc(C)c1-c1cc(Cc2n[nH]c(=O)c3ccccc23)cc(NCc2ccc([N+](=O)[O-])cc2)c1 [DDT37] | 8% | –
Cc1noc(C)c1-c1cc(Cc2n[nH]c(=O)c3ccccc23)cc(NCc2cccc(Cl)c2)c1 [DDT38] | 8% | 235 to 236 °C
Cc1noc(C)c1-c1cc(Cc2n[nH]c(=O)c3ccccc23)cc(NCc2ccc(Cl)cc2)c1 [DDT39] | 16% | 200 to 201 °C
Cc1noc(C)c1-c1cc(Cc2n[nH]c(=O)c3ccccc23)cc(NCc2cccc(Br)c2)c1 [DDT40] | 3% | 235 to 236 °C
Cc1noc(C)c1-c1cc(Cc2n[nH]c(=O)c3ccccc23)cc(NCc2ccc(Br)cc2)c1 [DDT41] | 17% | 200 to 201 °C
Cc1noc(C)c1-c1cc(Cc2n[nH]c(=O)c3ccccc23)cc(NCc2ccc(Br)cc2F)c1 [DDT42] | 3% | –
Cc1noc(C)c1-c1cc(Cc2n[nH]c(=O)c3ccccc23)cc(NCc2ccc(F)c(Br)c2)c1 [DDT43] | 4% | > 250 °C
Cc1cccc(CNc2cc(Cc3n[nH]c(=O)c4ccccc34)cc(-c3c(C)noc3C)c2)c1 [DDT44] | 3% | –
Cc1ccc(CNc2cc(Cc3n[nH]c(=O)c4ccccc34)cc(-c3c(C)noc3C)c2)cc1 [DDT45] | 7% | 215 to 216 °C

Structure (SMILES) | inhibition at 1 µM [1] | melting point
Cc1noc(C)c1-c1cc(Cc2n[nH]c(=O)c3ccccc23)cc(NCc2ccc(C(F)(F)F)cc2)c1 [DDT46] | 39% | 220 to 221 °C
CCCCS(=O)(=O)Nc1cc(Cc2n[nH]c(=O)c3ccccc23)cc(-c2c(C)noc2C)c1 [DDT52] | 6% | 147 to 148 °C
Cc1noc(C)c1-c1cc(Cc2n[nH]c(=O)c3ccccc23)cc(NS(=O)(=O)C2CCCCC2)c1 [DDT56] | 24% | –
Cc1noc(C)c1-c1cc(Cc2n[nH]c(=O)c3ccccc23)cc(NS(=O)(=O)c2ccccc2)c1 [DDT57] | 36% | –
Cc1cccc(S(=O)(=O)Nc2cc(Cc3n[nH]c(=O)c4ccccc34)cc(-c3c(C)noc3C)c2)c1 [DDT58] | 71% | –
Cc1ccc(S(=O)(=O)Nc2cc(Cc3n[nH]c(=O)c4ccccc34)cc(-c3c(C)noc3C)c2)cc1C [DDT61] | 49% | –
Cc1noc(C)c1-c1cc(Cc2n[nH]c(=O)c3ccccc23)cc(NS(=O)(=O)c2ccc(C(C)C)cc2)c1 [DDT64] | 69% | –
Cc1ccc(S(=O)(=O)Nc2cc(Cc3n[nH]c(=O)c4ccccc34)cc(-c3c(C)noc3C)c2)cn1 [DDT66] | 8% | –
COc1ccccc1S(=O)(=O)Nc1cc(Cc2n[nH]c(=O)c3ccccc23)cc(-c2c(C)noc2C)c1 [DDT67] | 24% | –
Cc1noc(C)c1-c1cc(Cc2n[nH]c(=O)c3ccccc23)cc(NS(=O)(=O)c2ccc3c(c2)OCCO3)c1 [DDT71] | 67% | –
CC(=O)Nc1ccc(S(=O)(=O)Nc2cc(Cc3n[nH]c(=O)c4ccccc34)cc(-c3c(C)noc3C)c2)cc1 [DDT73] | 38% | –
Cc1noc(C)c1-c1cc(Cc2n[nH]c(=O)c3ccccc23)cc(NS(=O)(=O)Cc2ccccc2)c1 [DDT76] | 50% | –
Cc1ccc(CS(=O)(=O)Nc2cc(Cc3n[nH]c(=O)c4ccccc34)cc(-c3c(C)noc3C)c2)cc1 [DDT78] | 55% | –
Cc1noc(C)c1-c1cc(Cc2n[nH]c(=O)c3ccccc23)cc(NS(=O)(=O)c2cccc(C(F)(F)F)c2)c1 [DDT81] | 20% | –
Cc1noc(C)c1-c1cc(Cc2n[nH]c(=O)c3ccccc23)cc(NS(=O)(=O)c2ccc([N+](=O)[O-])cc2)c1 [DDT83] | 28% | –
Cc1noc(C)c1-c1cc(Cc2n[nH]c(=O)c3ccccc23)cc(NS(=O)(=O)c2ccccc2F)c1 [DDT84] | 14% | –
Cc1noc(C)c1-c1cc(Cc2n[nH]c(=O)c3ccccc23)cc(NS(=O)(=O)c2cccc(F)c2)c1 [DDT85] | 5% | –
Cc1noc(C)c1-c1cc(Cc2n[nH]c(=O)c3ccccc23)cc(NS(=O)(=O)c2ccc(Cl)cc2Cl)c1 [DDT90] | 4% | –
Cc1noc(C)c1-c1cc(Cc2n[nH]c(=O)c3ccccc23)cc(NS(=O)(=O)c2ccc(Br)cc2)c1 [DDT93] | 26% | –

The next lines start with the values.

inhibition at 1 µM [1] | melting point | Structure (SMILES)
15% | – | Cc1noc(C)c1-c1cc(Cc2n[nH]c(=O)c3ccccc23)cc(C(N)=O)c1 [DDT01]
5% | > 250 °C | CNC(=O)c1cc(Cc2n[nH]c(=O)c3ccccc23)cc(-c2c(C)noc2C)c1 [DDT02]
67% | > 250 °C | Cc1noc(C)c1-c1cc(Cc2n[nH]c(=O)c3ccccc23)cc(C(=O)NC2CCCC2)c1 [DDT03]
56% | 178 to 179 °C | Cc1noc(C)c1-c1cc(Cc2n[nH]c(=O)c3ccccc23)cc(C(=O)NC2CCCCC2)c1 [DDT04]
35% | 192 to 193 °C | Cc1noc(C)c1-c1cc(Cc2n[nH]c(=O)c3ccccc23)cc(C(=O)Nc2ccccc2)c1 [DDT05]
4% | – | Cc1noc(C)c1-c1cc(Cc2n[nH]c(=O)c3ccccc23)cc(C(=O)NCc2ccccc2)c1 [DDT06]
8% | > 250 °C | Cc1noc(C)c1-c1cc(Cc2n[nH]c(=O)c3ccccc23)cc(C(=O)NCc2cccnc2)c1 [DDT07]
11% | – | Cc1noc(C)c1-c1cc(Cc2n[nH]c(=O)c3ccccc23)cc(C(=O)NC2CCOCC2)c1 [DDT08]
4% | – | Cc1noc(C)c1-c1cc(Cc2n[nH]c(=O)c3ccccc23)cc(C(=O)NC2CCS(=O)(=O)CC2)c1 [DDT09]
36% | 199 to 200 °C | Cc1noc(C)c1-c1cc(Cc2n[nH]c(=O)c3ccccc23)cc(C(=O)N[C@H]2CC[C@H](O)CC2)c1 [DDT10]
54% | 214 to 215 °C | Cc1noc(C)c1-c1cc(Cc2n[nH]c(=O)c3ccccc23)cc(C(=O)N[C@H]2CC[C@@H](O)CC2)c1 [DDT11]
38% | 241 to 243 °C | Cc1noc(C)c1-c1cc(Cc2n[nH]c(=O)c3ccccc23)cc(C(=O)N2CCC(=O)C2)c1 [DDT12]
71% | – | Cc1noc(C)c1-c1cc(Cc2n[nH]c(=O)c3ccccc23)cc(C(=O)N2CC[C@@H](O)C2)c1 [DDT13]
59% | – | Cc1noc(C)c1-c1cc(Cc2n[nH]c(=O)c3ccccc23)cc(C(=O)N2CCNCC2)c1 [DDT15]
71% | 241 to 242 °C | Cc1noc(C)c1-c1cc(Cc2n[nH]c(=O)c3ccccc23)cc(C(=O)N2CCOCC2)c1 [DDT16]
11% | 157 to 158 °C | Cc1noc(C)c1-c1cc(Cc2n[nH]c(=O)c3ccccc23)cc(C(=O)N2CCC[C@H](O)C2)c1 [DDT19]
4% | – | Cc1noc(C)c1-c1cc(Cc2n[nH]c(=O)c3ccccc23)cc(C(=O)N2CCC[C@@H](O)C2)c1 [DDT20]
19% | 176 to 177 °C | Cc1noc(C)c1-c1cc(Cc2n[nH]c(=O)c3ccccc23)cc(C(=O)N2CCC(O)CC2)c1 [DDT21]
64% | 173 to 174 °C | Cc1noc(C)c1-c1cc(Cc2n[nH]c(=O)c3ccccc23)cc(NC(=O)c2ccccc2)c1 [DDT22]
54% | 188 to 189 °C | Cc1noc(C)c1-c1cc(Cc2n[nH]c(=O)c3ccccc23)cc(NC(=O)c2ccc(N)cc2)c1 [DDT32]
69% | 195 to 196 °C | CCS(=O)(=O)Nc1cc(Cc2n[nH]c(=O)c3ccccc23)cc(-c2c(C)noc2C)c1 [DDT50]
4% | 165 to 166 °C | CCCS(=O)(=O)Nc1cc(Cc2n[nH]c(=O)c3ccccc23)cc(-c2c(C)noc2C)c1 [DDT51]
9% | 181 to 182 °C | COCCS(=O)(=O)Nc1cc(Cc2n[nH]c(=O)c3ccccc23)cc(-c2c(C)noc2C)c1 [DDT53]
3% | – | Cc1noc(C)c1-c1cc(Cc2n[nH]c(=O)c3ccccc23)cc(NS(=O)(=O)C(C)C)c1 [DDT54]
32% | 140 to 141 °C | Cc1noc(C)c1-c1cc(Cc2n[nH]c(=O)c3ccccc23)cc(NS(=O)(=O)C2CC2)c1 [DDT55]
